This passage reports EC50 results from ChEMBL document CHEMBL5532636 (Eur J Med Chem, 2023).

In general, EC50 refers to the concentration at which the effect is half-maximal.

Each structure is given as a SMILES string.

Test [1] concerns SARS-CoV-2. Briefly: Antiviral activity against SARS-CoV-2 infected in human Calu-3 cells assessed as reduction in progeny virus yeild preincubated with cell culture for 1 hr and further infected with virus for 1 hr followed by replacement of medium containing compound measured after 2 days by qRT-PCR analysis. It counts as functional, organism-based. Particulars: Severe acute respiratory syndrome coronavirus 2, Calu-3. (In qPCR the cycle at which signal appears reflects the starting amount.)

Test [2] deals with SARS-CoV-2. Briefly: Antiviral activity against SARS-CoV-2 infected in African green monkey Vero cells assessed as reduction in progeny virus yeild preincubated with cell culture for 1 hr and further infected with virus for 1 hr followed by replacement of medium containing compound measured after 2 days by qRT-PCR analysis. It counts as functional, organism-based. Particulars: Severe acute respiratory syndrome coronavirus 2, Vero.

`O=c1cc(-c2ccccc2)oc2cc(O)c(O)c(O)c12` [BAICALEIN]: the EC50 in the test with SARS-CoV-2 [1] is 1.2 µM.
As to `O=C(O)[C@H]1O[C@@H](Oc2cc3oc(-c4ccccc4)cc(=O)c3c(O)c2O)[C@H](O)[C@@H](O)[C@@H]1O` [BAICALIN], the EC50 in the test with SARS-CoV-2 [2] was determined as 9 µM.
